In ChEMBL document CHEMBL1201862, “PubChem BioAssay data set” (2004):
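Values below derive from 48-hour exposures of cells grown in 96-well plates, with endpoints linearly interpolated between the two concentrations bracketing the appropriate inhibition level. At the GI50, growth is halved.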 Calls of active or inactive are those of the source. Rule as the data show it: active = GI50 up to about 1.1 µM and inactive = higher.

Tests used:
Experiment in all cases: NCI-60 cell line screen, 48 h
[1] = system: A549
[2] = system: PC-3
[3] = system: SF-268
[4] = system: MDA-MB-435
[5] = system: Malme-3M
[6] = system: OVCAR-3
[7] = system: OVCAR-4
[8] = system: SK-MEL-2
[9] = system: RPMI-8226
[10] = system: HCT-15
[11] = system: SK-OV-3
[12] = system: EKVX
[13] = system: SNB-19
[14] = system: Hs-578T
[15] = system: SN12C
[16] = system: SK-MEL-5
[17] = system: MDA-MB-231
[18] = system: KM12
[19] = system: ACHN
[20] = system: T47D
[21] = system: IGROV-1
[22] = system: CAKI-1
[23] = system: HCT-116
[24] = system: OVCAR-8
[25] = system: SF-539
[26] = system: SF-295
[27] = system: SNB-75
[28] = system: MDA-N
[29] = system: 786-0
[30] = system: NCI/ADR-RES
[31] = system: HL-60
[32] = system: SK-MEL-28
[33] = system: NCI-H522
[34] = system: NCI-H23
[35] = system: U-251
[36] = system: M14
[37] = system: OVCAR-5
[38] = system: HOP-92
[39] = system: TK-10
[40] = system: HCC 2998
[41] = system: COLO 205
[42] = system: SR
[43] = system: UO-31
[44] = system: A498
[45] = system: CCRF-CEM
[46] = system: UACC-62
[47] = system: LOX IMVI
[48] = system: SW-620
[49] = system: K562
[50] = system: HT-29
[51] = system: BT-549
[52] = system: MCF7
[53] = system: MOLT-4
[54] = system: HOP-62
[55] = system: NCI-H460
[56] = system: UACC-257
[57] = system: DU-145
[58] = system: NCI-H226

Measured: GI50

O=C1CSC(c2ccc(Cl)cc2)N1c1ccc(-c2ccc(-n3c(-c4ccccc4)nc4ccccc4c3=O)cc2)cc1 (stereo not given)
33.2 µM: [10]
inactive: [1] 37.5 µM | [2] 26.1 µM | [3] 21.6 µM | [4] 27.4 µM | [5] 28.4 µM | [6] > 100 µM | [7] 19.3 µM | [8] 51.5 µM | [9] 55.7 µM | [11] 31.1 µM | [12] 56.9 µM | [13] 38.5 µM | [14] 28.8 µM | [15] 68.1 µM | [16] 24.2 µM | [17] 38.8 µM | [18] 26.2 µM | [19] 58.6 µM | [20] 13.8 µM | [21] 19 µM | [22] 29.4 µM | [23] 24.8 µM | [24] 54.8 µM | [25] 24.1 µM | [26] 37.5 µM | [27] 4 µM | [28] 32.1 µM | [29] 27.4 µM | [30] 20 µM | [31] > 100 µM | [32] 41.1 µM | [33] 25.2 µM | [34] 34.1 µM | [35] 21.8 µM | [36] 43.6 µM | [37] > 10 µM | [38] 11.4 µM | [39] 69 µM | [40] 93.5 µM | [41] 27.8 µM | [42] 28.2 µM | [43] 10.6 µM | [44] 51.2 µM | [45] 30.6 µM | [46] 20.2 µM | [47] 17.7 µM | [48] 11.8 µM | [49] 37.2 µM | [50] 15.2 µM | [51] 19 µM | [52] 30.7 µM | [53] 17.7 µM | [54] 61.4 µM | [55] 67.1 µM | [56] > 100 µM | [57] 49.1 µM

O=C(Nc1sccc1S(=O)(=O)c1ccc(Cl)cc1)C(F)(F)F
inactive: [1] 29.2 µM | [2] 21.5 µM | [3] 17.5 µM | [4] 39.1 µM | [5] 27.2 µM | [6] 31 µM | [7] 33.7 µM | [8] 13.5 µM | [9] 3.88 µM | [11] 30.3 µM | [12] 40.7 µM | [58] 29.6 µM | [13] > 100 µM | [14] 18.7 µM | [15] 10.3 µM | [16] 16 µM | [17] 13.7 µM | [18] 13.4 µM | [19] 43 µM | [20] 6.43 µM | [21] 32.1 µM | [22] 24.9 µM | [23] 14.1 µM | [24] 24.6 µM | [25] 26.1 µM | [26] 26.3 µM | [27] 20.9 µM | [28] 8.28 µM | [29] 17 µM | [30] 18.4 µM | [32] 74.3 µM | [33] 8.63 µM | [34] 24.1 µM | [35] 34.6 µM | [36] 38.3 µM | [37] 48.4 µM | [38] 23.6 µM | [39] 78.7 µM | [40] 22.9 µM | [41] 17.1 µM | [42] 22.8 µM | [43] 25.1 µM | [44] 33.9 µM | [46] 9.27 µM | [47] 31 µM | [48] 53.2 µM | [49] 11.5 µM | [50] 25 µM | [51] 58.5 µM | [52] 28.8 µM | [53] 15 µM | [54] 37.4 µM | [55] 27.4 µM | [56] 32.7 µM | [57] 31.6 µM
29.5 µM: [10]

Cc1ccc(CC2(C(=O)O)Cc3ccc(C)cc3C2)cc1 (stereo not given)
54 µM: [10]
inactive: [1] 72.9 µM | [2] 51.5 µM | [3] > 100 µM | [4] > 100 µM | [5] > 100 µM | [6] > 100 µM | [7] > 100 µM | [8] > 100 µM | [9] 69.3 µM | [11] > 100 µM | [12] 55.3 µM | [58] > 100 µM | [13] > 100 µM | [14] > 100 µM | [15] > 100 µM | [16] > 100 µM | [17] 89.1 µM | [18] 89.7 µM | [19] 94.4 µM | [20] > 100 µM | [21] > 100 µM | [22] > 100 µM | [23] > 100 µM | [24] > 100 µM | [25] > 100 µM | [26] 68.5 µM | [27] > 100 µM | [28] > 100 µM | [29] > 100 µM | [30] > 100 µM | [31] > 100 µM | [32] > 100 µM | [33] > 100 µM | [34] 75.5 µM | [35] 71.3 µM | [36] > 100 µM | [37] > 100 µM | [39] > 100 µM | [40] > 100 µM | [41] 84.3 µM | [42] > 100 µM | [43] > 100 µM | [44] > 100 µM | [45] 49.2 µM | [46] 56.5 µM | [47] > 100 µM | [48] > 100 µM | [49] 61.7 µM | [50] > 100 µM | [51] 65.3 µM | [52] > 100 µM | [53] > 100 µM | [54] > 100 µM | [55] > 100 µM | [56] > 100 µM | [57] > 100 µM

COc1ccc2cc1Oc1ccc(cc1)CC1c3cc(OC)c(cc3CCN1C)Oc1c(OC)c(OC)cc3c1C(C2)N(C)CC3 (stereo not given)
9.06 µM: [10]
inactive: [1] 17.5 µM | [2] 11.9 µM | [3] 12.9 µM | [4] 12 µM | [5] 11.4 µM | [7] 10.6 µM | [8] 12.8 µM | [11] 29.4 µM | [12] 12.2 µM | [58] 16.9 µM | [13] 12.7 µM | [14] 10.8 µM | [15] 9.02 µM | [16] 6.79 µM | [17] 10 µM | [18] 12.7 µM | [19] 9.57 µM | [20] 9.93 µM | [21] 18.8 µM | [22] 11.2 µM | [23] 19.1 µM | [24] 12.4 µM | [25] 8.95 µM | [26] 9.06 µM | [27] 8.63 µM | [28] 10.5 µM | [29] 13.1 µM | [30] 14 µM | [31] 4.71 µM | [32] 14.5 µM | [33] 9.89 µM | [34] 15.1 µM | [35] 10.2 µM | [36] 4.91 µM | [37] 34.2 µM | [38] 16.3 µM | [39] 10.8 µM | [40] 9.62 µM | [41] 2.49 µM | [42] 1.17 µM | [43] 9.42 µM | [44] 10.6 µM | [45] 17.7 µM | [46] 12.8 µM | [47] 9.98 µM | [48] 26.2 µM | [49] 7.94 µM | [50] 8.79 µM | [51] 10.8 µM | [52] 14.6 µM | [53] 10.4 µM | [55] 10.2 µM | [56] 6.75 µM | [57] 12.6 µM
